{"source": "patent US20060171944A1", "about": "“N-formyl peptide receptor mediation of platelet chemotaxis toward injured cells and activation of immune response” (priority 2002, published 2006)", "key": {"platelet FPR": {"target": "T1, platelet FPR (Homo sapiens, UniProt P21462)", "T1 construct": "endogenous in cells", "T1 sequence (P21462 1-350)": "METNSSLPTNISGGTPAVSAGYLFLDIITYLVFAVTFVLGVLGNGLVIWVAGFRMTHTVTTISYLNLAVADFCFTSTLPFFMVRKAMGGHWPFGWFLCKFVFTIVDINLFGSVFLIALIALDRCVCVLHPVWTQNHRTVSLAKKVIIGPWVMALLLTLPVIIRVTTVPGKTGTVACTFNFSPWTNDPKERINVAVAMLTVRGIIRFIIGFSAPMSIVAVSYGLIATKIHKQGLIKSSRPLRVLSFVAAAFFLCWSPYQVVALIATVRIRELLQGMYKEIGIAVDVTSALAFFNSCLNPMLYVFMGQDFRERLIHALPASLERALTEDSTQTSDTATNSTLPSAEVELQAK", "test": "Inhibition of platelet chemotaxis to fMLF in transwell migration assay", "type": "cell-based", "settings": "1 U and 10 U; non-activated and thrombin-activated platelets; P<0.001", "description": "In order to further confirm the specificity of the chemotactic response to N-formyl peptide binding of the FPR, platelet FPR was inhibited by several methods to establish its functional requirement for platelet chemotaxis. Platelets were pretreated with an FPR-specific antibody (α-FPR) capable of blocking the binding of N-formyl peptides to the FPR receptor, prior to the transwell migration assay. […] Additionally, platelets were treated with pertussis toxin, a specific inhibitor of the a-subunit of members of the Gi/o class of G-proteins required for FPR activation.\nPlatelet migration was assessed using a 96-well ChemoTx® microplate (Neuro Probe, Gaithersburg Md.). For all chemotaxis experiments, different concentrations of stimulants were placed in the bottom wells of the microplate and the filter was positioned (2 μm pore size). The cell suspension was seeded onto the top of the filter (30 μl) and the microplates were incubated for 2 hrs at 37° C. For all chemokinesis experiments, different concentrations of stimulants were placed in the bottom wells of the microplate and the filter was positioned. […] The filter was then carefully removed and the migrated cells were counted by light microscopy. Results are expressed as the mean value (±SD) of total migrated cells, in triplicate samples, and are taken from five experiments independent."}, "human platelets": {"system": "human platelets", "test": "Platelet chemotaxis toward ischemic/reperfused human aortic endothelial cells", "type": "cell-based", "settings": "thrombin-activated platelets", "description": "Primary human aortic endothelial cells were plated in 0.2% gelatin (Sigma) coated 96-well ChemoTx microplates and allowed to recover for 48 hours. Before the plate was placed in the modular incubator chamber (Billups-Rothenberg Inc.; Del Mar, Calif.) the media was replaced with serum-free media containing 10 mM Hepes. The plate was placed on ice and put into the air tight modular incubator chamber and flushed with a gas mixture of 5% CO2 and 95% N2 for 90 min to induce ischemia. The cell culture was then returned to a normoxic environment of atmospheric air/5% CO2 to simulate reperfusion, and allowed to recover for 4 hours in a cell culture incubator. Chemotaxis experiments were then performed.\nIn particular, studies were performed to determine whether endogenous danger signals released by tissues undergoing ischemia/reperfusion cell injury induced platelet chemotaxis. Primary human aortic cells, plated in a 96-well ChemoTx plate NeuroProbeInc. Gaithersburg, Md. were placed on ice and put into an air tight modular incubator chamber that was flushed with a gas mixture of 5% CO2 and 95% N2 for 90 min to induce ischemia. The cell culture was then returned to a normoxic environment of atmospheric air/5% CO2 and allowed to recover for 4 hours in a cell culture incubator at 37° C."}}}
{"substance": "pertussis toxin", "values": [{"measurement": "effect of platelet treatment with pertussis toxin on migration to fMLF", "setting": "platelet FPR", "value": "significantly decreased migration"}, {"measurement": "effect of platelet treatment on chemotaxis toward ischemic aortic endothelial cells", "setting": "human platelets", "value": "decreased chemotaxis"}]}
